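Protocol summary: plate cells (96-well), add compound at 5 concentrations, incubate 48 h, interpolate endpoints linearly. The concentration for 50% growth inhibition is given as GI50.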 Activity calls are given as the source filed them. No stated cut-off is given here; in the data, active = GI50 up to about 1.1 µM and inactive = higher.
What was measured:
Test in all cases: growth of human tumour cells (NCI), 48 h
SK-MEL-2 = system: SK-MEL-2
IGROV-1 = system: IGROV-1
SK-MEL-28 = system: SK-MEL-28
SNB-75 = system: SNB-75
ACHN = system: ACHN
786-0 = system: 786-0
NCI-H226 = system: NCI-H226
HOP-18 = system: HOP-18
MOLT-4 = system: MOLT-4
NCI-H522 = system: NCI-H522
TK-10 = system: TK-10
K562 = system: K562
MCF7 = system: MCF7
SK-OV-3 = system: SK-OV-3
SF-268 = system: SF-268
MDA-MB-435 = system: MDA-MB-435
BT-549 = system: BT-549
CCRF-CEM = system: CCRF-CEM
HOP-62 = system: HOP-62
OVCAR-5 = system: OVCAR-5

Compound | GI50 (SK-MEL-2) | GI50 (IGROV-1) | GI50 (SK-MEL-28) | GI50 (SNB-75) | GI50 (ACHN) | GI50 (786-0) | GI50 (NCI-H226) | GI50 (HOP-18) | GI50 (MOLT-4) | GI50 (NCI-H522) | GI50 (TK-10) | GI50 (K562) | GI50 (MCF7) | GI50 (SK-OV-3) | GI50 (SF-268) | GI50 (MDA-MB-435) | GI50 (BT-549) | GI50 (CCRF-CEM) | GI50 (HOP-62) | GI50 (OVCAR-5)
O=C(Cn1ccnc1[N+](=O)[O-])N(CCO)CCO | 191 µM (inactive) | > 250 µM (inactive) | > 250 µM (inactive) | > 1250 µM (inactive) | > 250 µM (inactive) | > 250 µM (inactive) | > 250 µM (inactive) | > 1250 µM (inactive) | > 250 µM (inactive) | > 250 µM (inactive) | > 250 µM (inactive) | > 250 µM (inactive) | > 1250 µM (inactive) | > 250 µM (inactive) | > 250 µM (inactive) | > 250 µM (inactive) | > 250 µM (inactive) | > 250 µM (inactive) | > 250 µM (inactive) | > 250 µM (inactive)
CCOC(=O)/C(=C/c1ccc(C(F)(F)F)cc1)N(CC)CC | 25.7 µM (inactive) | 47.8 µM (inactive) | > 100 µM (inactive) | > 100 µM (inactive) | 42.1 µM (inactive) | > 100 µM (inactive) | 48.4 µM (inactive) | 12.5 µM (inactive) | 96.4 µM (inactive) | 31.6 µM (inactive) | > 100 µM (inactive) | > 100 µM (inactive) | – | 66.4 µM (inactive) | 72.3 µM (inactive) | – | – | > 100 µM (inactive) | 42.6 µM (inactive) | 87.1 µM (inactive)
NC(=O)/C=C/c1c[nH]c2nccnc12 | 1.79 µM (inactive) | 3.83 µM (inactive) | 0.628 µM (active) | 1.78 µM (inactive) | 2.71 µM (inactive) | 3.34 µM (inactive) | 0.78 µM (active) | 0.228 µM (active) | 0.641 µM (active) | 7.13 µM (inactive) | 2.43 µM (inactive) | 0.966 µM (active) | 3.27 µM (inactive) | 3.95 µM (inactive) | 2.05 µM (inactive) | 3.59 µM (inactive) | 2.2 µM (inactive) | 0.656 µM (active) | 2.94 µM (inactive) | 0.15 µM (active)
Cc1ccc(NC(=O)CCc2nnc3s/c(=C\C=C\c4ccccc4)c(=O)n23)cc1 | 68.7 µM (inactive) | > 100 µM (inactive) | > 100 µM (inactive) | > 83.2 µM (inactive) | > 100 µM (inactive) | > 100 µM (inactive) | > 100 µM (inactive) | 90.2 µM (inactive) | 30 µM (inactive) | 37.8 µM (inactive) | > 100 µM (inactive) | > 100 µM (inactive) | > 71.4 µM (inactive) | > 100 µM (inactive) | 59.3 µM (inactive) | > 86.5 µM (inactive) | > 63.8 µM (inactive) | 27.8 µM (inactive) | > 95.5 µM (inactive) | > 100 µM (inactive)
CC(=O)OCC1OC(N2C(=O)C(=O)c3cc(C)ccc32)C(OC(C)=O)C(OC(C)=O)C1OC(C)=O (centres undefined) | > 100 µM (inactive) | 46 µM (inactive) | 32.5 µM (inactive) | > 100 µM (inactive) | 50.9 µM (inactive) | 38.9 µM (inactive) | > 100 µM (inactive) | > 100 µM (inactive) | 29 µM (inactive) | 36.3 µM (inactive) | > 100 µM (inactive) | > 100 µM (inactive) | – | > 100 µM (inactive) | 49.5 µM (inactive) | – | – | 49.5 µM (inactive) | > 100 µM (inactive) | > 100 µM (inactive)
